From patent EP1571449A1 (priority 2004, dated 2005)
Like-named read-outs stand apart in the source and are kept apart here.

Experiments:
[1] = target: PrP^C (Homo sapiens, UniProt P04156); assay type: binding
[2] = target: plasma PrP^C (Homo sapiens, UniProt P04156); details: plasma mixed with 400 µM CuCl2, copper containing gradient, 16 h at 100,000 x g, 4 °C

SMILES: [Cl][Cu][Cl] [CuCl2]
- PrP^C detection, assay 2 [1]: much more improved detection of PrP^C
- PrP^C detection, assay 3 [1]: slightly worse detection of PrP^C as compared to assay 2
- effect on detection of bound prion proteins (assay sensitivity) ([1]; 15 min): improvement in sensitivity
- migration pattern of PrP^C immunoreactivity in sucrose gradient [2]: the high molecular weight peak, present in EDTA plasma, disappeared

SMILES: O=S(=O)([O-])[O-].[Cu+2] [CuSO4]
- dose relation of the effect on assay sensitivity [1]: dose-related effects on the assay sensitivity
- effect on detection of bound prion proteins (assay sensitivity) [1]: improvement in sensitivity
- increase in sensitivity [1]: more than 3000 fold
- plasma dilution at which twice the backgound signal was detected [1]: 156250 times diluted

SMILES: O=C(O)CN(CCN(CC(=O)O)CC(=O)O)CC(=O)O [EDTA, reference compound]
- PrP^C detection, assay 4 [1]: blocking effects
- PrP^C detection, assay 5 [1]: complete inhibition of the copper effects
- PrP^C detection, assay 6 [1]: the copper-induced changes of PrP^C disappeared
- PrP^C detection, assay 7 [1]: improved detection of PrP^C was observed
- effect of EDTA on the copper-induced assay sensitivity increase [1]: dose-related reduction of copper-induced assay sensitivity increase

SMILES: OO [H2O2, hydrogen peroxide]
- dose relation of the effect on assay sensitivity [1]: dose-related effects on the assay sensitivity
- effect on detection of bound prion proteins (assay sensitivity) [1]: enhanced the detection of bound prion proteins

SMILES: [Cl][Mn][Cl] [MnCl2]
- effect on detection of bound prion proteins (assay sensitivity) [1]: improvement in sensitivity
- times higher concentration needed for the same signal increasing effect as compared to zinc [1]: about 12 times

SMILES: O=S(=O)([O-])[O-].[Zn+2] [ZnSO4]
- effect on detection of bound prion proteins (assay sensitivity) [1]: improvement in sensitivity

SMILES: O=CO [formic acid]
- effect on detection of bound prion proteins (assay sensitivity) [1]: had no effect on the assay
